Patent publication US6914045B2, “Glycopeptide antibiotics” (Wyeth Holdings Corporation, priority 2001, dated 2005)
≈ marks a conversion by molar mass, not a printed value.

Tests used:
Test in all cases: in vitro antibacterial evaluation, MIC by broth dilution
Format in all cases: cell-based
Conditions in all cases: broth dilution, 18 hours at 35° C.
Enterococcus sp. = tested on: Enterococcus sp.
Procedure: (§1) Methods for in vitro Antibacterial Evaluation (Table 1)
(§2) The minimum inhibitory concentration (MIC), the lowest concentration of the antibiotic which inhibits growth of the test organism, is determined by the broth dilution method using Muller-Hinton II […] (Baltimore Biological Laboratories) following the recommendations of the National Committee for Clinical Laboratory Standards [Methods for dilution antimicrobial susceptibility tests for bacteria that grow aerobically, approved standard M7-A2, National Committee for Clinical Laboratory Standards, Villanova, Pa.].
(§3) An inoculum level of 5×10^5 CFU/mL, and a range of antibiotic concentrations (64-0.06 μg/mL) is used. […] The test organisms include a spectrum of Gram-positive bacteria comprised of Staphylococcus sp., Streptococcus sp. and Enterococcus sp. These organisms include recent clinical isolates that are resistant to methicillin, penicillin and/or vancomycin.

Staphylococcus sp. = tested on: Staphylococcus sp.
Procedure: as §1, §2, §3

Streptococcus sp. = tested on: Streptococcus sp.
Procedure: as §1, §2, §3

Escherichia coli = tested on: Escherichia coli
In short: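 Broth dilution MIC per NCCLS M7-A2 in Mueller-Hinton II medium, inoculum 5×10^5 CFU/mL, antibiotic range 64-0.06 μg/mL. MIC taken as lowest concentration inhibiting growth.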

SMILES: COc1ccc(Oc2cccc(-c3nc4cc(CC5NC(=O)C(C(C)c6ccccc6)NC(=O)CNC(=O)C(CO)NC(=O)C(C(O)C6CNC(=N)N6C6OC(CO)C(O)C(O)C6O)NC(=O)C(C(O)C6CNC(=N)N6)NC5=O)ccc4o3)c2)cc1 (stereo not drawn) [Example 35, Cyclo[3-[2-[3-(4-methoxyphenoxy)phenyl]-1,3-benzoxazol-5-yl]alanyl-3-(2-iminoimidazolidin-4-yl)seryl-3-(3-hexopyranosyl-2-iminoimidazolidin-4-yl)serylserylglycyl-β-methylphenyl-alanyl]]
- MIC Enterococcus faecalis (ATCC 29212) (Enterococcus sp.; strain ATCC 29212): 16 µg/mL (≈ 13.4 µM)
- MIC Enterococcus faecalis (GC 2242) (Enterococcus sp.; strain GC 2242): 16 µg/mL (≈ 13.4 µM)
- MIC Enterococcus faecium (GC 2243) (Enterococcus sp.; strain GC 2243): 8 µg/mL (≈ 6.7 µM)
- MIC Enterococcus faecalis (GC 2691) (Enterococcus sp.; strain GC 2691): 16 µg/mL (≈ 13.4 µM)
- MIC Enterococcus faecalis (GC 3059) (Enterococcus sp.; strain GC 3059): 32 µg/mL (≈ 26.8 µM)
- MIC Enterococcus faecalis (GC 4552) (Enterococcus sp.; strain GC 4552): 32 µg/mL (≈ 26.8 µM)
- MIC Enterococcus faecalis (GC 4553) (Enterococcus sp.; strain GC 4553): 8 µg/mL (≈ 6.7 µM)
- MIC Enterococcus faecalis (GC 4554) (Enterococcus sp.; strain GC 4554): 32 µg/mL (≈ 26.8 µM)
- MIC Enterococcus faecium (GC 4556) (Enterococcus sp.; strain GC 4556): 32 µg/mL (≈ 26.8 µM)
- MIC Enterococcus faecium (GC 4557) (Enterococcus sp.; strain GC 4557): 4 µg/mL (≈ 3.35 µM)
- MIC Enterococcus avium (GC 4558) (Enterococcus sp.; strain GC 4558): 8 µg/mL (≈ 6.7 µM)
- MIC Enterococcus faecalis (GC 6189) (Enterococcus sp.; strain GC 6189): 16 µg/mL (≈ 13.4 µM)
- MIC Staphylococcus aureus (ATCC 29213) (Staphylococcus sp.; strain ATCC 29213): 8 µg/mL (≈ 6.7 µM)
- MIC Staphylococcus aureus (GC 1131) (Staphylococcus sp.; strain GC 1131): 8 µg/mL (≈ 6.7 µM)
- MIC Staphylococcus aureus (GC 3051) (Staphylococcus sp.; strain GC 3051): 8 µg/mL (≈ 6.7 µM)
- MIC Staphylococcus aureus (GC 3053) (Staphylococcus sp.; strain GC 3053): 8 µg/mL (≈ 6.7 µM)
- MIC Staphylococcus aureus (GC 4541) (Staphylococcus sp.; strain GC 4541): 8 µg/mL (≈ 6.7 µM)
- MIC Staphylococcus aureus (GC 4542) (Staphylococcus sp.; strain GC 4542): 8 µg/mL (≈ 6.7 µM)
- MIC Staphylococcus aureus-SMITH (GC 4543) (Staphylococcus sp.; strain GC 4543): 8 µg/mL (≈ 6.7 µM)
- MIC Staphylococcus aureus (GC 4544) (Staphylococcus sp.; strain GC 4544): 8 µg/mL (≈ 6.7 µM)
- MIC Staphylococcus aureus (GC 4545) (Staphylococcus sp.; strain GC 4545): 8 µg/mL (≈ 6.7 µM)
- MIC Staphylococcus haemolyticus (GC 4546) (Staphylococcus sp.; strain GC 4546): 8 µg/mL (≈ 6.7 µM)
- MIC Coagulase Negative Staphylococcus (GC 4547) (Staphylococcus sp.; strain GC 4547): 8 µg/mL (≈ 6.7 µM)
- MIC Coagulase Negative Staphylococcus (GC 4548) (Staphylococcus sp.; strain GC 4548): 8 µg/mL (≈ 6.7 µM)
- MIC Coagulase Negative Staphylococcus (GC 4549) (Staphylococcus sp.; strain GC 4549): 8 µg/mL (≈ 6.7 µM)
- MIC Coagulase Negative Staphylococcus (GC 4551) (Staphylococcus sp.; strain GC 4551): 8 µg/mL (≈ 6.7 µM)
- MIC Coagulase Negative Staphylococcus (GC 6257) (Staphylococcus sp.; strain GC 6257): 2 µg/mL (≈ 1.67 µM)
- MIC Streptococcus pneumoniae (ATCC 6301) (Streptococcus sp.; strain ATCC 6301): 8 µg/mL (≈ 6.7 µM)
- MIC Streptococcus pneumoniae (GC 1894) (Streptococcus sp.; strain GC 1894): 8 µg/mL (≈ 6.7 µM)
- MIC Streptococcus pyogenes (GC 4563) (Streptococcus sp.; strain GC 4563): 2 µg/mL (≈ 1.67 µM)
- MIC Streptococcus agalactiae (GC 4564) (Streptococcus sp.; strain GC 4564): 8 µg/mL (≈ 6.7 µM)
- MIC Streptococcus pneumoniae (GC 4565) (Streptococcus sp.; strain GC 4565): 16 µg/mL (≈ 13.4 µM)
- MIC Escherichia coli (ATCC 25922) (Escherichia coli; strain ATCC 25922): >128 µg/mL
- MIC Escherichia coli (GC 4559) (Escherichia coli; strain GC 4559): >128 µg/mL
- MIC Escherichia coli (GC 4560) (Escherichia coli; strain GC 4560): 16 µg/mL (≈ 13.4 µM)
